Source: paper PMC12087874, “Biaryl Phosphates and Phosphonates as Selective Inhibitors of the Transcription Factor STAT4” (Angewandte Chemie (International Ed. in English), 2025)
Entries after “also recorded” stand apart in the source; their conditions may differ. Square brackets hold non-standard residues; d marks the D form. Peptide text beside a SMILES is read from it. pY = N[C@@H](Cc1ccc(OP(=O)(O)O)cc1)C(=O)O

Assays:
STAT4 [1] = molecular target: T1, STAT4 (Homo sapiens, UniProt Q14765); experiment: Competitive fluorescence polarization (FP) assay, STAT4 SH2 domain; format: binding; conditions: FP assay; for Ki: tracer 5-carboxyfluorescein-GpYLPQNID-OH, Ki derived from IC50, read-out: STAT4 K i; for Ki / IC50: mean ± SD, n = 3
T1 sequence (Q14765 1-748): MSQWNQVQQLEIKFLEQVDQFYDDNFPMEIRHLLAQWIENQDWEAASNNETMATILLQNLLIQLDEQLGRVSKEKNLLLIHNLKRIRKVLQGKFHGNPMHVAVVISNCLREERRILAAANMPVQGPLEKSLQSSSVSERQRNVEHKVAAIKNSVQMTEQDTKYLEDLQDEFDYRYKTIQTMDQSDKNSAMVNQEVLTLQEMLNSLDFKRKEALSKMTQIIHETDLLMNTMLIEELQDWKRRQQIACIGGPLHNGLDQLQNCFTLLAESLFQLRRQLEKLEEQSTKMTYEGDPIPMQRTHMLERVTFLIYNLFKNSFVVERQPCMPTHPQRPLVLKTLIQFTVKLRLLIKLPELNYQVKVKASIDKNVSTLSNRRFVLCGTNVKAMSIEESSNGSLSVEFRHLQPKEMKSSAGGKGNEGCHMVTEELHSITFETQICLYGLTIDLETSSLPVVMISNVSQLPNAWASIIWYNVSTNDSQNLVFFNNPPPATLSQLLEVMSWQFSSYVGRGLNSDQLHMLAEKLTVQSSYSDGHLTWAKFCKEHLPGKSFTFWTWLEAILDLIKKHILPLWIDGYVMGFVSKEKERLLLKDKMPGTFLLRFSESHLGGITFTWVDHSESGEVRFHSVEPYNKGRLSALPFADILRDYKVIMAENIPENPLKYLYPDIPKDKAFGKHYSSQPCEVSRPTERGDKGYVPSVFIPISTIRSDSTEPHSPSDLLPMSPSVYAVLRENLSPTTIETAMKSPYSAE
Protocol: (§1) Fluorescence polarization assays
(§2) Competitive fluorescence polarization assays, which measure the abilities of test compounds (dissolved in DMSO) to displace a fluorescent-labeled peptide from the SH2 domain of a STAT protein, were carried out essentially as described. Proteins were used at the following final concentrations: 23 nM or 28 nM for STAT4; between 56 nM and 91 nM for STAT1; 107 nM or 110 nM for STAT3; between 131 nM and 177 nM for STAT5a; between 62 nM and 85 nM for STAT5b; and 101 nM or 106 nM for STAT6. These concentrations represent the approximate […]
(§3) dissociation constant for peptide binding of the respective protein batches used in the assays.
(§4) The following peptides were used: 5-carboxyfluorescein-GpYLPQNID-OH for STAT4; 5-carboxyfluorescein-GpYDKPHVL for STAT1; 5-carboxyfluorescein-GpYLPQTV-NH2 for STAT3; 5-carboxyfluorescein-GpYLVLDKW for STAT5a/b, and 5-carboxyfluorescein- […]
(§5) Gp[…]-OH for STAT6. All peptides were used at a final concentration of 10 nM. The buffer consisted of 10 mM Tris (pH 8.0), 50 mM NaCl, 1 mM EDTA, 1 mM DTT, 0 .1 % Nonidet P-40 substitute, and 2 % DMSO. After incubation of protein and test compound for 1 h at room temperature, the fluorescent -labeled peptide was added. Samples were transferred to 384 - well microtiter plates and fluorescence polarization was read after an additional 60 min of incubation time. Measurements were performed in triplicate. Percent binding was calculated based on a logarithmic curve fit using OriginPro 8G software. IC 50 values were converted to Ki-values via the published equation[3] using the corresponding Excel spread sheet […]
(§6) https://websites.umich.edu/~shaomengwanglab/software/calc_ki/index.html .
(§7) Error bars represent standard deviations. Ligand efficiencies (LE) were calculated by the formula LE = -1,37 x log Ki / number of non-hydrogen atoms.[4] […]

STAT4 [2] = molecular target: T1, STAT4; experiment: IL-12-induced STAT4 Tyr693 phosphorylation in NK-92 cells (Western blot); format: cell-based; design: utilizing cellular lysates from the STAT4‐expressing natural killer cell line NK‐92; endogenous in cells; host or cells: NK-92 (DSMZ)
Protocol: NK-92 cells (DSMZ) were cultured in α-MEM containing 12.5% fetal bovine serum (FBS), 12.5% horse serum, 2 mM L-glutamine, penicillin/streptomycin and 50 U/ml IL -2. […]
The components of cell lysates from treated cells, or heat-treated lysates from CETSA, were separated by SDS-PAGE (10%), transferred to nitrocellulose membrane (Bio-Rad) and detected using monoclonal rabbit primary antibodies (Cell Signaling), α-rabbit-HRP secondary antibody (Dako) and Western Lightning Plus chemiluminescence reagent (Perkin Elmer).
Bands were visualized using an ImageQuant system (GE Healthcare) and quantitated using ImageJ software (NIH). […]
The sitting drop was composed of 0.1 µl protein solution and 0.1 µl reservoir solution. Plates were stored at 19°C in a protein […]
In the first set of experiments, w e tried to crystallize STAT4 as a SUMO -STAT4 fusion protein […]
was cleaved off as described above.
Screening for crystallization conditions for tag-free STAT4 was performed both in the absence or presence of 1 equivalent of 6m or 6h. Since the chosen protein concentration of 3.6 mg/ml appeared to be too low, screening was repeated with a higher concentration of 6.4 mg/ml STAT4 for all conditions (corresponding to 100 µM 6m). Both the SUMO-STAT4 and the tag-free STAT4 preferentially precipitated under conditions containing polyethylene glycol. In one set of experiments, we also screened for conditions in the presence of the high-affinity peptide GY(PO3H2)LPQNID adapted from the IL-12 receptor. However, none of the conditions resulted in the growth of STAT4 crystals (Table S4).

STAT1 = molecular target: T2, STAT1 (Homo sapiens, UniProt P42224); experiment: Competitive fluorescence polarization (FP) assay, STAT1 SH2 domain; format: binding; conditions: tracer 5-carboxyfluorescein-GpYDKPHVL, Ki derived from IC50
T2 sequence (P42224 1-750): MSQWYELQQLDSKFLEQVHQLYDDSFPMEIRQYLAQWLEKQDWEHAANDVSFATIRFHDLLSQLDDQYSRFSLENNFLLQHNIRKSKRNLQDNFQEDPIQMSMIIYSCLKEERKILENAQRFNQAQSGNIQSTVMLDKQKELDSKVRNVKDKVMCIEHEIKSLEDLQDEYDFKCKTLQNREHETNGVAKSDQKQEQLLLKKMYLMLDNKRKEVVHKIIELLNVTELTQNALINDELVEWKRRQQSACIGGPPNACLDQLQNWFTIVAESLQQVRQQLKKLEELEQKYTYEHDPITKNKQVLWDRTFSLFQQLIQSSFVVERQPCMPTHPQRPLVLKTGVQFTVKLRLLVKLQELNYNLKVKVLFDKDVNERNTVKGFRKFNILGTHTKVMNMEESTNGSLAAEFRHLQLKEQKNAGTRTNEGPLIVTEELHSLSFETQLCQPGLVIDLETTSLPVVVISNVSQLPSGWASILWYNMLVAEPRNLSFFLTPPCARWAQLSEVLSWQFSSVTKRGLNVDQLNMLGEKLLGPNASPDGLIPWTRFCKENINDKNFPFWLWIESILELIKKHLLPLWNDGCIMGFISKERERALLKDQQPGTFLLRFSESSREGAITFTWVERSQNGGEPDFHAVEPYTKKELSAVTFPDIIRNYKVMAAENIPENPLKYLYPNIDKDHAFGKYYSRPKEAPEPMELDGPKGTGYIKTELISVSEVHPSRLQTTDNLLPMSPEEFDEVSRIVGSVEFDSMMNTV
Protocol: as §1, §2, §3, §4, §5, §6, §7

STAT3 = STAT3 (Homo sapiens, UniProt P40763); experiment: Competitive fluorescence polarization (FP) assay, STAT3 SH2 domain; format: binding; conditions: tracer 5-carboxyfluorescein-GpYLPQTV-NH2, Ki derived from IC50
STAT3, sequence (P40763 whole entry, species assumed, the tested form may be a part): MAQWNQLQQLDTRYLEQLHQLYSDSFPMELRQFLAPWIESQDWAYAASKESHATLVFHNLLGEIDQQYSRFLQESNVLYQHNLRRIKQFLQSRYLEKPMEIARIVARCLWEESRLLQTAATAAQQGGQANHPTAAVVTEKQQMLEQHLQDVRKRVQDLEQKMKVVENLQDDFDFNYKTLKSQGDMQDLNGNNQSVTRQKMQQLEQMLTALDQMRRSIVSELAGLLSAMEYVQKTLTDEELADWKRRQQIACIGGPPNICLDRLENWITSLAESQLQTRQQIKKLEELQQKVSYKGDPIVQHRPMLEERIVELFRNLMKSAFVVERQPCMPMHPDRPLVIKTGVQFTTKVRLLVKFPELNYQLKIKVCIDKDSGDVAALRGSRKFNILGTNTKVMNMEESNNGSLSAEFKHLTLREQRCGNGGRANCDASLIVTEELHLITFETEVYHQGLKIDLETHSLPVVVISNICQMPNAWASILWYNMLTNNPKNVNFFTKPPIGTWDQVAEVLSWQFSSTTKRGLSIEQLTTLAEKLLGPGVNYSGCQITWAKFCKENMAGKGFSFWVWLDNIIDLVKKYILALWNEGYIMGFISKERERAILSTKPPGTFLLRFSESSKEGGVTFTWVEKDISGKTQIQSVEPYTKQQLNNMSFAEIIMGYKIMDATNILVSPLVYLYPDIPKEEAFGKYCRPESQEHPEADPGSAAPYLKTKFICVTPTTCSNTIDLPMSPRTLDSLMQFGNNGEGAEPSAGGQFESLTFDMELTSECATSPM
Protocol: as §1, §2, §3, §4, §5, §6, §7

SMILES	Ki (STAT4 [1])	IC50 (STAT4 [1])	other results
O=P(O)(O)C(F)(F)c1ccc(-c2ccoc2)cc1F [Compound 8b]	39 ± 1 µM	83 ± 2 µM	–
Cc1cscc1-c1ccc(C(F)(F)P(=O)(O)O)c(F)c1 [Compound 8m]	8.9 ± 0.7 µM	19 ± 1 µM	–
Oc1ccc(-c2ccc3ccccc3c2)cc1F [Compound 4m]	–	–	STAT4 inhibition at 200 µM (STAT4 [1]; 200 µM): lack of activity; also recorded: no inhibition at 200 µM
Cn1cc(-c2ccc(C(F)(F)P(=O)(O)O)c(F)c2)cn1 [Compound 8c]	8 ± 0.7 µM	15 ± 1 µM	–
N#Cc1ccccc1-c1ccc(OP(=O)(O)O)cc1 [Compound 6c]	2.7 ± 0.3 µM	5.2 ± 0.6 µM	–
O=P(O)(O)C(F)(F)c1ccc(-c2ccsc2)cc1F [Compound 8e]	2.8 ± 0.3 µM	6 ± 0.6 µM	–
COc1cc(-c2ccccc2)ccc1OP(=O)(O)O [Compound 6l]	22 ± 2 µM	47 ± 5 µM	–
COC(=O)c1cc(-c2ccc(C(F)(F)P(=O)(O)O)c(F)c2)cs1 [Compound 8f]	4.4 ± 0.1 µM	9.4 ± 0.2 µM	–
Cc1sccc1-c1ccc(C(F)(F)P(=O)(O)O)c(F)c1 [Compound 8l]	8.7 ± 0.9 µM	18 ± 2 µM	–
CC(C)(C)C(=O)OCOP(=O)(Cc1ccc(-c2ccc3ccccc3c2)cc1F)OCOC(=O)C(C)(C)C [Compound 10]	–	–	inhibition of IL‐12‐induced STAT4 Tyr693 phosphorylation (STAT4 [2]; 2 h, presence of 25% serum): inactive; also recorded: does not; inhibition of IL‐12‐induced STAT4 Tyr693 phosphorylation (STAT4 [2]; absence of serum): still inactive
COC(=O)c1ccccc1-c1ccc(OP(=O)(O)O)cc1 [Compound 6a]	9.1 ± 0.8 µM	18 ± 2 µM	–
CC(=O)c1cc(-c2ccc(C(F)(F)P(=O)(O)O)c(F)c2)cs1 [Compound 8h]	7.1 ± 0.6 µM	15 ± 1 µM	–
O=P(O)(O)C(F)(F)c1ccc(-c2ccsc2Cl)cc1F [Compound 8j]	7.3 ± 0.6 µM	15 ± 1 µM	–
COc1cc(OC)cc(-c2ccc(OP(=O)(O)O)cc2)c1 [Compound 6e]	1.9 ± 0.1 µM	3.9 ± 0.2 µM	–
O=C(O)c1ccccc1-c1ccc(OP(=O)(O)O)cc1 [Compound 6b]	7.8 ± 0.5 µM	17 ± 1 µM	–
O=P(O)(O)Oc1c(F)cc(-c2ccccc2)cc1F [Compound 6j]	2 ± 0.1 µM	4.3 ± 0.3 µM	–
CC[C@H](C)[C@H](NC(=O)[C@H](CC(N)=O)NC(=O)[C@H](CCC(N)=O)NC(=O)[C@@H]1CCCN1C(=O)[C@H](CC(C)C)NC(=O)[C@H](Cc1ccc(OP(=O)(O)O)cc1)NC(=O)CNC(C)=O)C(=O)N[C@@H](CC(=O)O)C(=O)O [Ac‐GpYLPQNID, reference compound] (Ac-G[pY]LPQNID-OH)	0.22 ± 0.02 µM	–	Ki (STAT1): 0.36 ± 0.08 µM; Ki (STAT3): 0.24 ± 0.04 µM
O=P(O)(O)C(F)(F)c1ccc(-c2cccs2)cc1F [Compound 8d]	3.6 ± 0.2 µM	7.7 ± 0.4 µM	–
O=P(O)(O)Cc1ccc(-c2ccc3ccccc3c2)cc1F [Compound 7]	–	–	inhibition at 100 µM (STAT4 [1]; 100 µM, the highest concentration tested): 33 ± 4%
CC(=O)NCc1ccccc1-c1ccc(OP(=O)(O)O)cc1 [Compound 6d]	6.2 ± 0.4 µM	12 ± 1 µM	–
O=P(O)(O)Oc1ccc(-c2ccccc2)cc1Cl [Compound 6k]	3.3 ± 1 µM	7 ± 2 µM	–
O=P(O)(O)Oc1ccc(-c2ccccc2)c(F)c1 [Compound 6i]	3.8 ± 0.1 µM	8.1 ± 0.1 µM	–
NC(=O)c1cc(-c2ccc(C(F)(F)P(=O)(O)O)c(F)c2)cs1 [Compound 8g]	11 ± 2 µM	24 ± 4 µM	–
O=P(O)(O)Oc1ccc(-c2cccc3ccccc23)cc1 [Compound 6f]	0.84 ± 0.08 µM	1.8 ± 0.2 µM	–
O=P(O)(O)C(F)(F)c1ccc(-c2csc(Cl)c2)cc1F [Compound 8i]	5.5 ± 0.7 µM	12 ± 2 µM	–
